From US11040954B1, “CXCR3 receptor agonists” (RECEPTOS LLC, priority 2016, dated 2021)

What follows are molecules tested against T1, CXCR3 (Homo sapiens, UniProt P49682) (assay: CXCR3 cAMP agonist assay (cAMP Hunter CHOK1 CXCR3 Gi cell line, forskolin-stimulated, HitHunter cAMP detection)). Settings: cAMP Hunter CHOK1 CXCR3 Gi cells, 20 μM forskolin, 30 minutes; read-out: Activity (CXCR3 cAMP agonist assay compound EC50).
T1 construct: host or cells: CHO-K1 (cAMP Hunter CHOK1 CXCR3 Gi cell line)
T1 sequence (P49682 1-368): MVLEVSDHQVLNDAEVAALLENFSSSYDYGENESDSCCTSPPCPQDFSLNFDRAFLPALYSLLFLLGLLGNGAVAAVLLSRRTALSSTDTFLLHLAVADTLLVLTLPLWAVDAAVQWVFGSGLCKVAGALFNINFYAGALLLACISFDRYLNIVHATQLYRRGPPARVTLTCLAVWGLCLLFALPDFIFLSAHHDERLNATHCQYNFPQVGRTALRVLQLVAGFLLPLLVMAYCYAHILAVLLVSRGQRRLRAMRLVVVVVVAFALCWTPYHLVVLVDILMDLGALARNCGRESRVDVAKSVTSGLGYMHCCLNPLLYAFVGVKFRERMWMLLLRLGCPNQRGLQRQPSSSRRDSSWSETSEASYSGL
Assay type: cell-based
Procedure: The cAMP Hunter™ CHOK1 CXCR3 Gi cell line was purchased from DiscoveRx. Cells were seeded into a 96-well white assay plate at 50,000 cells/well/94 μl assay buffer (Hank's Buffered Saline Solution, 10 mM HEPES, 0.1% fatty acid-free BSA, pH 7.4) and immediately assayed in suspension. Forskolin was added to 20 μM (5 μl of 400 μM stock) simultaneously with a 12-point dose response curve of compound at 0-10 μM (1 μl of 100× stock in 100% DMSO), and cells were incubated for 30 minutes. A cAMP standard curve is run as an assay control. A CXCL11 dose response was included to determine maximum efficacy. Direct detection of cAMP was carried out using the DiscoveRx HitHunter cAMP kit according to manufacturer's instructions, and luminescence was read using a SpectraMax M5 plate reader.

EC50 [nM] | SMILES
< 50 | Cc1ccc(NC(=O)[C@H](CCCCN)NC(=O)[C@@H]2Cc3ccccc3CN2C(=O)CCC(=O)c2ccccc2)cc1C(F)(F)F [Compound 1-30]
> 500 | NCC[C@H](NC(=O)[C@@H]1Cc2ccccc2CN1C(=O)CCC(=O)c1ccccc1)C(=O)Nc1c(Cl)cccc1Cl [Compound 14-7]
< 50 | Cc1cc(NC(=O)C(NC(=O)[C@@H]2Cc3ccccc3CN2C(=O)CCC(=O)c2ccccc2)C2CC[N+](C)(C)CC2)ccc1Cl (mixture of isomers) [Compound 6-6]
50 to 250 | COc1c(C)cccc1NC(=O)[C@H](CCN)NC(=O)[C@@H]1Cc2ccccc2CN1C(=O)CCC(=O)c1ccccc1 [Compound 2-51]
250 to 500 | COc1cccc(NC(=O)[C@H](CCCCN)NC(=O)[C@@H]2Cc3ccccc3CN2C(=O)CCC(=O)c2ccccc2)c1 [Compound 1-11]
< 50 | CCNCC[C@H](NC(=O)[C@@H]1Cc2ccccc2CN1C(=O)CCC(=O)c1ccccc1)C(=O)Nc1ccc(Cl)c(C)c1 [Compound 8-4]
< 50 | CN(C)C(=N)NCCC[C@H](NC(=O)[C@@H]1Cc2ccccc2CN1C(=O)CCC(=O)c1ccccc1)C(=O)Nc1ccc(Cl)c(Cl)c1 [Compound 5-1, (S)—N—((S)-1-((3,4-dichlorophenyl)amino)-5-(3,3-dimethylguanidino)-1-oxopentan-2-yl)-2-(4-oxo-4-phenylbutanoyl)-1,2,3,4-tetrahydroisoquinoline-3-carboxamide]
< 50 | O=C(CCC(=O)N1Cc2ccccc2CC1C(=O)NC(CCN1CCC(F)CC1)C(=O)Nc1ccc(Cl)c(Cl)c1F)c1ccccc1 (racemic) [Compound 23-3]
50 to 250 | O=C(CCC(=O)N1Cc2ccccc2C[C@H]1C(=O)N[C@@H](CCN1CC(F)(F)C1)C(=O)Nc1ccc2c(c1)CCC2)c1ccccc1 [Compound 23-6]
50 to 250 | NCCCC[C@H](NC(=O)[C@@H]1Cc2ccccc2CN1C(=O)CCC(=O)c1ccccc1)C(=O)Nc1cccc(C(F)(F)F)c1 [Compound 1-13]
250 to 500 | Cc1ccc(NC(=O)[C@H](CCN2CCC(O)CC2)NC(=O)[C@@H]2Cc3ccccc3CN2C(=O)CCC(=O)c2ccccc2)c(F)c1 [Compound 28-3]
250 to 500 | Cc1cc(NC(=O)C(Cc2cccnc2)NC(=O)[C@@H]2Cc3ccccc3CN2C(=O)CCC(=O)c2ccccc2)ccc1Cl (mixture of isomers) [Compound 3-3]
< 50 | NCCCC[C@H](NC(=O)[C@@H]1Cc2ccccc2CN1C(=O)CCC(=O)c1ccccc1)C(=O)Nc1ccc(Cl)c(C(F)(F)F)c1 [Compound 1-18]
< 50 | CC[C@H]1CCCN1C(=O)CCC(=O)N1Cc2ccccc2C[C@H]1C(=O)N[C@@H](CCN)C(=O)Nc1ccc(Cl)c(C)c1 [Compound 12-111]
< 50 | COc1cc(Cl)c(C)cc1NC(=O)[C@H](CCN)NC(=O)[C@@H]1Cc2ccccc2CN1C(=O)CCC(=O)c1ccccc1 [Compound 2-25]
> 500 | Cc1cc(NC(=O)[C@H](CCN)NC(=O)[C@@H]2Cc3ccccc3CN2C(=O)CCC(=O)N2CCN(c3ccccc3)CC2)ccc1Cl [Compound 12-101]
> 500 | NCC[C@H](NC(=O)[C@@H]1Cc2ccccc2CN1C(=O)CCC(=O)c1ccccc1)C(=O)Nc1ccc(F)c(F)c1 [Compound 2-8]
250 to 500 | COc1cc2c(cc1NC(=O)[C@H](CCN)NC(=O)[C@@H]1Cc3ccccc3CN1C(=O)CCC(=O)c1ccccc1)CCCC2 [Compound 2-59]
< 50 | Cc1cc(NC(=O)[C@H](CCN)NC(=O)[C@@H]2Cc3ccccc3CN2C(=O)CCC(=O)Nc2ccccc2)ccc1Cl [Compound 12-81]
250 to 500 | NCC[C@H](NC(=O)[C@@H]1Cc2ccccc2CN1C(=O)CCC(=O)c1ccccc1)C(=O)Nc1c(F)cccc1Cl [Compound 14-9]
50 to 250 | Cc1cc(NC(=O)[C@H](CCN)NC(=O)[C@@H]2Cc3ccccc3CN2C(=O)CCC(=O)NCC2CCCC2)ccc1Cl [Compound 12-10]
50 to 250 | NCCCC[C@H](NC(=O)[C@@H]1Cc2ccccc2CN1C(=O)CCC(=O)c1ccccc1)C(=O)Nc1cccc(Cl)c1 [Compound 1-9]

Second part, the molecule before the results:

SMILES | EC50 [nM]
NCC[C@H](NC(=O)[C@@H]1Cc2ccccc2CN1C(=O)CCC(=O)N1CCCCC1C(F)F)C(=O)Nc1ccc(Cl)c(Cl)c1F (stereo partly shown) [Compound 15-56] | < 50
Cc1c(Cl)ccc(NC(=O)[C@H](CCN)NC(=O)[C@@H]2Cc3ccccc3CN2C(=O)CCC(=O)N2CCCC(C)(C)C2)c1Cl [Compound 15-50] | < 50
CC1(C)COCCN1C(=O)CCC(=O)N1Cc2ccccc2C[C@H]1C(=O)NC1(C(=O)Nc2ccc(Cl)c(Cl)c2F)CCNCC1 [Compound 12-127] | 50 to 250
CC1(C)CCCCN1C(=O)CCC(=O)N1Cc2ccccc2C[C@H]1C(=O)NC(CC12CC(N)(C1)C2)C(=O)Nc1ccc(Cl)c(Cl)c1F (stereo partly drawn) [Compound 33-1, (3S)—N-(3-(3-aminobicyclo[1.1.1]pentan-1-yl)-1-((3,4-dichloro-2-fluorophenyl)amino)-1-oxopropan-2-yl)-2-(4-(2,2-dimethylpiperidin-1-yl)-4-oxobutanoyl)-1,2,3,4-tetrahydroisoquinoline-3-carboxamide] | < 50
Cc1cc(NC(=O)[C@@](C)(CCCCN)NC(=O)[C@@H]2Cc3ccccc3CN2C(=O)CCC(=O)c2ccccc2)ccc1Cl [Compound 4-9] | 50 to 250
Cc1cc(NC(=O)[C@H](CCN)NC(=O)[C@@H]2Cc3ccccc3CN2C(=O)CCC(=O)N2[C@H](C)CCC[C@H]2C)ccc1Cl [Compound 12-141] | < 50
CC(C)(O)C1CCCCN1C(=O)CCC(=O)N1Cc2ccccc2C[C@H]1C(=O)N[C@@H](CCN)C(=O)Nc1ccc(Cl)c(Cl)c1F (stereo partly shown) [Compound 15-55] | < 50
Cc1cc(NC(=O)[C@H](CCN)NC(=O)[C@@H]2Cc3ccccc3CN2C(=O)CCC(=O)N2CCN(C)[C@H](C)C2)ccc1Cl [Compound 12-35] | < 50
Cc1cc(NC(=O)[C@H](CCN)NC(=O)[C@@H]2Cc3ccccc3CN2C(=O)CCC(=O)N2CC[C@H](C)C2)ccc1Cl [Compound 12-123] | < 50
Cc1cc(NC(=O)[C@H](CCN)NC(=O)[C@@H]2Cc3ccccc3CN2C(=O)CCC(=O)N2CCCC2C(F)(F)F)ccc1Cl (stereo partly shown) [Compound 12-51] | < 50
Cc1cc(NC(=O)[C@H](CCN)NC(=O)[C@@H]2Cc3ccccc3CN2C(=O)CCC(=O)N2CCC(C)(C)CC2)ccc1Cl [Compound 12-28] | < 50
Cc1cc(NC(=O)[C@H](CCN)NC(=O)[C@@H]2Cc3ccccc3CN2C(=O)CCC(=O)N2CCCC2(C)C)ncc1Cl [Compound 12-157] | < 50
CC[C@@H]1CN(C(=O)CCC(=O)N2Cc3ccccc3C[C@H]2C(=O)N[C@@H](CCN)C(=O)Nc2ccc(Cl)c(C)c2)CCN1C [Compound 12-151] | < 50
Cc1cc(NC(=O)[C@H](CCN)NC(=O)[C@@H]2Cc3ccccc3CN2C(=O)CCC(=O)NC2CC2(F)F)ccc1Cl (stereo partly shown) [Compound 12-82] | 250 to 500
CC(C)(C)C1CCN(C(=O)CCC(=O)N2Cc3ccccc3C[C@H]2C(=O)N[C@@H](CCN)C(=O)Nc2ccc(Cl)c(Cl)c2F)C1 (stereo partly shown) [Compound 15-34] | < 50
CC(=O)N1CCN(C(=O)CCC(=O)N2Cc3ccccc3C[C@H]2C(=O)N[C@@H](CCN)C(=O)Nc2ccc(Cl)c(C)c2)CC1 [Compound 12-106] | 250 to 500
NCC[C@H](NC(=O)[C@@H]1Cc2ccccc2CN1C(=O)CCC(=O)N1CCC2(CC1)COC2)C(=O)Nc1ccc(Cl)c(Cl)c1F [Compound 15-12] | 250 to 500
Cc1cc(NC(=O)[C@H](CCN)NC(=O)[C@@H]2Cc3ccccc3CN2C(=O)CCC(=O)N2CCN(C)C(=O)C2)ccc1Cl [Compound 12-37] | 50 to 250
